Experimental data taken from the NIST ThermoML archive (doi:10.1016/j.tca.2006.01.008).

Key:
[1] = refractive index (Na D-line) (dimensionless); settings: 298.15 K; 101.33 kPa; Liquid; Standard Abbe refractometry
[2] = refractive index (Na D-line) (dimensionless); xn = mol fraction of the nth substance listed; settings: 298.15 K, 101 kPa, Liquid, Standard Abbe refractometry
[3] = xn = mol fraction of the nth substance listed; settings: 298.15 K, 101 kPa, Liquid, Vibrating tube method
[4] = 298.15 K; 101.33 kPa; Liquid; Vibrating tube method

O [water]
Settings | refractive index
[1] | 1.3325

CC(C)=O [acetone] + O
Settings | mass density, [3] [kg/m3] | refractive index, [2]
x1 = 0.0502 | 977 | 1.3422
x1 = 0.0993 | 959.3 | 1.3499
x1 = 0.1502 | 942.2 | 1.3549
x1 = 0.1996 | 926.6 | 1.3583
x1 = 0.2496 | 911.8 | 1.3604
x1 = 0.3007 | 897.6 | 1.3616
x1 = 0.3507 | 884.8 | 1.3621
x1 = 0.4003 | 873.1 | 1.3623
x1 = 0.4509 | 862.1 | 1.3621
x1 = 0.4992 | 852.5 | 1.3618
x1 = 0.5489 | 843.5 | 1.3614
x1 = 0.599 | 835 | 1.3609
x1 = 0.6506 | 827 | 1.3603
x1 = 0.6996 | 819.9 | 1.3602
x1 = 0.7014 | 819.6 | 1.3597
x1 = 0.7467 | 813.4 | 1.3591
x1 = 0.8011 | 806.2 | 1.3592
x1 = 0.8015 | 806.3 | 1.3583
x1 = 0.846 | 800.8 | 1.3577
x1 = 0.8969 | 794.9 | 1.3569
x1 = 0.9005 | 794.5 | 1.3572
x1 = 0.9451 | 789.9 | 1.3564

CC(C)=O [acetone]
Settings | mass density [kg/m3] | refractive index
[1] | – | 1.356
[4] | 784.9 | –

CC(C)=O [acetone] + CCCCCC
Settings | mass density, [3] [kg/m3] | refractive index, [2]
x1 = 0.0504 | 657.2 | 1.3709
x1 = 0.0994 | 659.7 | 1.3699
x1 = 0.1511 | 662.9 | 1.3688
x1 = 0.1999 | 666.3 | 1.3679
x1 = 0.2497 | 670.1 | 1.3668
x1 = 0.3006 | 674.4 | 1.366
x1 = 0.3518 | 679 | 1.3651
x1 = 0.4006 | 683.7 | 1.3643
x1 = 0.4476 | 688.7 | 1.3635
x1 = 0.4995 | 694.5 | 1.3627
x1 = 0.5498 | 700.7 | 1.3618
x1 = 0.5976 | 707 | 1.3611
x1 = 0.6479 | 714.1 | 1.3603
x1 = 0.697 | 721.7 | 1.3595
x1 = 0.7503 | 730.5 | 1.3587
x1 = 0.7998 | 739.4 | 1.358
x1 = 0.8499 | 749.1 | 1.3572
x1 = 0.8979 | 759.3 | 1.3568
x1 = 0.9507 | 771.7 | 1.3561

CCCCCC [hexane]
Settings | mass density [kg/m3] | refractive index
[1] | – | 1.3724
[4] | 655.1 | –
